Source: publication PMC4388869 (Journal of neuroimmune pharmacology : the official journal …, 2015)
Values joined by “and” are separate entries in the source; they are usually repeats but may differ in a detail not shown here. Identical values can stand only once.

Columns and labels:
[1] = biological target: T1, K92M-hDAT (Homo sapiens, UniProt Q01959, K92M); assay type: cell-based
[2] = biological target: T2, Y470F-hDAT (Homo sapiens, UniProt Q01959, Y470F); experiment: Basal substrate efflux assay, CHO cells with Y470F-hDAT; assay type: cell-based
T2 sequence (Q01959 whole entry Y470F): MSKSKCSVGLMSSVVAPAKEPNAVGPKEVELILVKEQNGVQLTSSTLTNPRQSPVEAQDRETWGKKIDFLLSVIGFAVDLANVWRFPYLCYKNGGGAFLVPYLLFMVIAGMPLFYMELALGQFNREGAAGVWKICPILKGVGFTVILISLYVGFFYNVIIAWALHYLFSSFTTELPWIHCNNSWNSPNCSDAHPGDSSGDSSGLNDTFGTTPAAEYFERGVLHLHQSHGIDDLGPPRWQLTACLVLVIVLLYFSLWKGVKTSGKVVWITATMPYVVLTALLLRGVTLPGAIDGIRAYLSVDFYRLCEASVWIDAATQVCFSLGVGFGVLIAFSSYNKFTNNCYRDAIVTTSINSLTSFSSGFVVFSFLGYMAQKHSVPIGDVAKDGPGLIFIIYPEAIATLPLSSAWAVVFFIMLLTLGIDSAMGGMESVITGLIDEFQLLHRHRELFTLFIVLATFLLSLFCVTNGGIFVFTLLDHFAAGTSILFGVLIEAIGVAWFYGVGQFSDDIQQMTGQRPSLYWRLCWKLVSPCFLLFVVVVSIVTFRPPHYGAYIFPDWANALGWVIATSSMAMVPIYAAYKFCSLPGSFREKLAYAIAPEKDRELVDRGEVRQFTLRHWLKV

[3] = biological target: T1, K92M-hDAT; experiment: Basal substrate efflux assay, CHO cells with K92M-hDAT; assay type: cell-based
[4] = biological target: T3, Y470A-hDAT (Homo sapiens, UniProt Q01959, Y470A); experiment: Basal substrate efflux assay, CHO cells with Y470A-hDAT; assay type: cell-based
T3 sequence (Q01959 whole entry Y470A): as the sequence (Q01959 whole entry Y470F) above, with F470A counted along it

[5] = biological target: Y470H-hDAT (Homo sapiens, UniProt Q01959, Y470H); experiment: Basal substrate efflux assay, CHO cells with Y470H-hDAT; assay type: cell-based
Sequence of Y470H-hDAT (Q01959 whole entry Y470H): as the sequence (Q01959 whole entry Y470F) above, with F470H counted along it

[6] = biological target: T4, Y88F-hDAT (Homo sapiens, UniProt Q01959, Y88F); assay type: cell-based
T4 sequence (Q01959 whole entry Y88F): as the sequence (Q01959 whole entry Y470F) above, with Y88F, F470Y counted along it

[7] = biological target: T2, Y470F-hDAT; assay type: cell-based
[8] = biological target: T3, Y470A-hDAT; assay type: cell-based
[9] = biological target: T4, Y88F-hDAT; experiment: Basal substrate efflux assay, CHO cells with Y88F-hDAT; assay type: cell-based
[10] = biological target: T5, WT hDAT (Homo sapiens, UniProt Q01959); experiment: Basal substrate efflux assay, CHO cells with WT hDAT; assay type: cell-based; conditions: preloading [3H]MPP+ 5 nM, 30 min
T5 sequence (Q01959 whole entry): as the sequence (Q01959 whole entry Y470F) above, with F470Y counted along it

[11] = biological target: T2, Y470F-hDAT; experiment: [3H]WIN 35,428 binding assay, Y470F-hDAT; conditions: ZnCl2 10 µM, CHO cells
[12] = biological target: T4, Y88F-hDAT; experiment: [3H]WIN 35,428 binding assay, Y88F-hDAT; conditions: ZnCl2 10 µM, CHO cells
[13] = biological target: T1, K92M-hDAT; experiment: [3H]WIN 35,428 binding assay, K92M-hDAT; conditions: ZnCl2 10 µM, CHO cells
[14] = biological target: T5, WT hDAT; assay type: cell-based; conditions: ZnCl2 10 µM, CHO cells
[15] = biological target: T3, Y470A-hDAT; experiment: [3H]WIN 35,428 binding assay, Y470A-hDAT; conditions: ZnCl2 10 µM, CHO cells
[16] = biological target: T5, WT hDAT; experiment: [3H]WIN 35,428 binding assay, WT hDAT; conditions: ZnCl2 10 µM, CHO cells
[17] = transfected PC12 cells (Fig. 4 legend: CHO), room temperature, 8 min
[18] = preloading 0.05 µM [3H]DA, 20 min, CHO cells
[19] = preloading [3H]MPP+ 5 nM, 30 min, CHO cells

T1 sequence (Q01959 whole entry K92M): as the sequence (Q01959 whole entry Y470F) above, with K92M, F470Y counted along it

In the case of `NCCc1ccc(O)c(O)c1` [DA, dopamine], the “Vmax of [3H]DA uptake” value [1, 17] is reported as 4.5 ± 1.7 pmol/min/10^5 cells, the “basal DA efflux compared to WT hDAT” value [2] is reported as “no effect” and the “total [3H]DA in the cells at the start of the efflux experiment” value (“total [3H]DA in the cells at the start” for short) [2, 18] is reported as 20908 ± 4209 dpm. For the same compound, the “basal fractional [3H]DA efflux compared to WT hDAT” value ([3]; at 1 and 10 min) was “elevated”, the “total [3H]DA in the cells at the start” value [3, 18] was 9655 ± 2160 dpm and the “basal fractional [3H]DA efflux compared to WT hDAT” value ([4]; at 1 and 10 min) was “elevated”. The “total [3H]DA in the cells at the start” value [4, 18] was 1158 ± 123 dpm, the “basal fractional [3H]DA efflux compared to WT hDAT” value ([5]; at 1, 10, 20 min) was “elevated” and the “total [3H]DA in the cells at the start” value [5, 18] was 2488 ± 150 dpm. For the same compound, the “Vmax of [3H]DA uptake” value [6, 17] was 14.8 ± 3.7 pmol/min/10^5 cells, the “Km of [3H]DA uptake compared to WT hDAT” value ([7]; transfected PC12 cells) was “did not alter” and the “Vmax of [3H]DA uptake compared to WT hDAT” value ([7]; transfected PC12 cells) was “did not alter”. The “Vmax of [3H]DA uptake” value ([8]; transfected PC12 cells) was 1.2 ± 0.2 pmol/min/10^5 cells and the “total [3H]DA in the cells at the start” value [9, 18] was 41805 ± 6887 dpm.

With `C[n+]1ccc(-c2ccccc2)cc1` [MPP^+, 1-methyl-4-phenylpyridinium] the “basal MPP+ efflux compared to WT hDAT” value [2] was “no effect”, the “total [3H]MPP+ in the cells at the start of the efflux experiment” value (“total [3H]MPP+ in the cells at the start” for short) [2, 19] was 7399 ± 359 dpm and the “basal fractional [3H]MPP+ efflux compared to WT hDAT” value ([3]; at all time points) was “did not alter”. For the same compound, the “total [3H]MPP+ in the cells at the start” value [3, 19] was 967 ± 121 dpm, the “basal fractional [3H]MPP+ efflux compared to WT hDAT” value ([4]; at all time points) was “elevated” and the “total [3H]MPP+ in the cells at the start” value [4, 19] was 460 ± 46 dpm. The “total [3H]MPP+ in the cells at the start” value [5, 19] was 602 ± 28 dpm, the “basal fractional [3H]MPP+ efflux compared to WT hDAT” value ([9]; at all time points) was “did not alter” and the “total [3H]MPP+ in the cells at the start” value [9, 19] was 5695 ± 450 dpm. For the same compound, the “total [3H]MPP+ in the cells at the start” value [10] was 12120 ± 397 dpm and 15516 ± 920 dpm.

For `[Cl-].[Cl-].[Zn+2]` [Zn^2+, ZnCl2], the “decrease of [3H]DA uptake by Zn2+ relative to control” value ([1]; ZnCl2 10 µM, CHO cells) was 81%, the “effect of Zn2+ on [3H]WIN 35,428 binding” value [11] was “but not in Y470F-hDAT and Y470A-hDAT” and the “effect of Zn2+ on [3H]WIN 35,428 binding” value [12] was “did not significantly alter”. The “effect of Zn2+ on [3H]WIN 35,428 binding” value [13] was “did not significantly alter”, the “decrease of [3H]DA uptake by Zn2+ relative to control” value ([6]; ZnCl2 10 µM, CHO cells) was 73% and the “decrease of [3H]DA uptake by Zn2+ relative to control” value ([7]; ZnCl2 10 µM, CHO cells) was 49%. For the same compound, the “decrease of [3H]DA uptake by Zn2+ relative to control” value ([8]; ZnCl2 10 µM, CHO cells) was 72%, the “decrease of [3H]DA uptake by Zn2+ relative to control” value [14] was 47% and 48% and the “effect of Zn2+ on [3H]WIN 35,428 binding” value [15] was “but not in Y470F-hDAT and Y470A-hDAT”. The “increase of [3H]WIN 35,428 binding by Zn2+ relative to control” value [16] was 48% and 54%.
